Where a SMILES comes first, the peptide text is derived from it. Bridges are numbered along the chain shown (N, C = ends). [ ]: non-standard residue; d: D form. The star is where a group is joined. Ala(morpholin-4-yl) = N[C@@H](CN1CCOCC1)C(=O)O; Phe(4-COOH) = N[C@@H](Cc1ccc(C(=O)O)cc1)C(=O)O; Bip = N[C@@H](Cc1ccc(-c2ccccc2)cc1)C(=O)O; Phe(3-Me) = Cc1cccc(C[C@H](N)C(=O)O)c1; Val(3-OH) = CC(C)(O)[C@H](N)C(=O)O; Cha = N[C@@H](CC1CCCCC1)C(=O)O; Carboxymethyl = O=C(O)C*; Nle = CCCC[C@H](N)C(=O)O; Orn = NCCC[C@H](N)C(=O)O; Pra = C#CC[C@H](N)C(=O)O; Dab = NCC[C@H](N)C(=O)O; Abu = CC[C@H](N)C(=O)O; Dap = NC[C@H](N)C(=O)O; Propargyl = C#CC*
Target: T1, human PD-1 / PD-L1-Ig binding on Jurkat cell line over-expressing human PD-1 (Jurkat-PD-1) (Homo sapiens, UniProt Q15116)
T1 construct: expressed in transfected cells; host or cells: Jurkat
T1 sequence (Q15116 25-288): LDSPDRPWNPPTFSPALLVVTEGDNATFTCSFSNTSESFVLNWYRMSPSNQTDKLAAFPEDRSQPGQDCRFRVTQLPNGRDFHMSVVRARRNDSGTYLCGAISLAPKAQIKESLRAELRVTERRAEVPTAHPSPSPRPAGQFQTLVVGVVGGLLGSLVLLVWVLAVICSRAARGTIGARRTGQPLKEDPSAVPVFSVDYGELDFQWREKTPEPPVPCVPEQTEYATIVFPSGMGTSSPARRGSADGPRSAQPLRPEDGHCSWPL
Experiment: Jurkat-PD-1 Cell Binding High-Content Screening Assay (CBA)
Assay type: cell-based
Conditions: Jurkat-PD-1 cells, PE-labeled PD-L1-Ig 20 nM final; read-out: Jurkat HPD1_PDL1 IC50
Method in brief: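 Compounds were preincubated with Jurkat-hPD-1 cells in DMEM plus 10% fetal calf serum for 2 h at 37° C. Phycoerythrin-labeled PD-L1-Ig (20 nM final) was then added for 1 hour. Cells were fixed in 4% paraformaldehyde with Hoechst 33342, and bound fluorescence was quantified by high-content imaging.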

SMILES	IC50 [nM]
C#CCOc1ccc(C[C@@H]2NC(=O)[C@H](Cc3ccc(-c4ccccc4)cc3)NC(=O)[C@H](Cc3ccc(C(=O)O)cc3)NC(=O)[C@H](Cc3cccc(C)c3)NC(=O)[C@H](CC(=O)O)NC(=O)[C@H](Cc3ccc(C(=O)O)cc3)NC(=O)[C@H](CC)NC(=O)CSC[C@@H](C(=O)N[C@@H](CCN)C(N)=O)NC(=O)[C@H](CCC(=O)O)NC(=O)[C@H](C(C)C)NC(=O)[C@H](CC3CCCCC3)NC(=O)[C@H](CCN)NC(=O)[C@@H](CC(C)C)NC(=O)[C@H](CCCN)NC2=O)cc1 [Compound 1839] ({CH2CO}-[Abu][Phe(4-COOH)]D[Phe(3-Me)][Phe(4-COOH)][Bip]Y(Propargyl)[Orn][dL][Dab][Cha]VEC[Dab]-NH2; thioether N-14)	2.3
C#CCOc1ccc(C[C@@H]2NC(=O)[C@H](Cc3cccc(C)c3)NC(=O)[C@H](CC(=O)O)NC(=O)[C@H](Cc3ccc(OCC(=O)O)cc3)NC(=O)[C@H](CC)NC(=O)CSC[C@@H](C(=O)N[C@@H](CCN)C(N)=O)NC(=O)[C@H](CCC(=O)O)NC(=O)[C@H](C(C)C)NC(=O)[C@H](CC3CCCCC3)NC(=O)[C@H](CCN)NC(=O)[C@@H](CC(C)C)NC(=O)[C@H](CCCN)NC(=O)[C@H](Cc3ccc(OCC(=O)O)cc3)NC(=O)[C@H](Cc3ccc(-c4ccccc4)cc3)NC2=O)cc1 [Compound 1840] ({CH2CO}-[Abu]Y(Carboxymethyl)D[Phe(3-Me)]Y(Propargyl)[Bip]Y(Carboxymethyl)[Orn][dL][Dab][Cha]VEC[Dab]-NH2; thioether N-14)	3.4
C#CCOc1ccc(C[C@@H]2NC(=O)[C@H](Cc3cccc(C)c3)NC(=O)[C@H](CC(=O)O)NC(=O)[C@H](Cc3ccc(C(=O)O)cc3)NC(=O)[C@H]([C@@H](C)O)NC(=O)CSC[C@@H](C(=O)N[C@@H](CCN)C(N)=O)NC(=O)[C@H](CCC(=O)O)NC(=O)[C@H](C(C)C)NC(=O)[C@H](CC3CCCCC3)NC(=O)[C@H](CCN)NC(=O)[C@@H](CC(C)C)NC(=O)[C@H](CCCN)NC(=O)[C@H](Cc3ccc(C(=O)O)cc3)NC(=O)[C@H](Cc3ccc(-c4ccccc4)cc3)NC2=O)cc1 [Compound 1841] ({CH2CO}-T[Phe(4-COOH)]D[Phe(3-Me)]Y(Propargyl)[Bip][Phe(4-COOH)][Orn][dL][Dab][Cha]VEC[Dab]-NH2; thioether N-14)	3.9
C#CCOc1ccc(C[C@@H]2NC(=O)[C@H](Cc3cccc(C)c3)NC(=O)[C@H](CC(=O)O)NC(=O)[C@H](Cc3ccc(C(=O)O)cc3)NC(=O)[C@H](CCCC)NC(=O)CSC[C@@H](C(=O)N[C@@H](CCN)C(N)=O)NC(=O)[C@H](CCC(=O)O)NC(=O)[C@H](C(C)C)NC(=O)[C@H](CC3CCCCC3)NC(=O)[C@H](CCN)NC(=O)[C@@H](CC(C)C)NC(=O)[C@H](CCCN)NC(=O)[C@H](Cc3ccc(C(=O)O)cc3)NC(=O)[C@H](Cc3ccc(-c4ccccc4)cc3)NC2=O)cc1 [Compound 1842] ({CH2CO}-[Nle][Phe(4-COOH)]D[Phe(3-Me)]Y(Propargyl)[Bip][Phe(4-COOH)][Orn][dL][Dab][Cha]VEC[Dab]-NH2; thioether N-14)	1.2
C#CCOc1ccc(C[C@@H]2NC(=O)[C@H](Cc3ccc(-c4ccccc4)cc3)NC(=O)[C@H](Cc3ccc(OCC(=O)O)cc3)NC(=O)[C@H](Cc3cccc(C)c3)NC(=O)[C@H](CC(=O)O)NC(=O)[C@H](Cc3ccc(OCC(=O)O)cc3)NC(=O)[C@H](CC)NC(=O)CSC[C@@H](C(=O)N[C@@H](CCN)C(N)=O)NC(=O)[C@H](CCC(=O)O)NC(=O)[C@H](C(C)C)NC(=O)[C@H](CC3CCCCC3)NC(=O)[C@H](CCN)NC(=O)[C@@H](CC(C)C)NC(=O)[C@H](CCCN)NC2=O)cc1 [Compound 1843] ({CH2CO}-[Abu]Y(Carboxymethyl)D[Phe(3-Me)]Y(Carboxymethyl)[Bip]Y(Propargyl)[Orn][dL][Dab][Cha]VEC[Dab]-NH2; thioether N-14)	8.3
C#CCOc1ccc(C[C@@H]2NC(=O)[C@H](Cc3ccc(-c4ccccc4)cc3)NC(=O)[C@H](Cc3ccc(C(=O)O)cc3)NC(=O)[C@H](Cc3cccc(C)c3)NC(=O)[C@H](CC(=O)O)NC(=O)[C@H](Cc3ccc(C(=O)O)cc3)NC(=O)[C@H](Cc3ccc(OCC(=O)O)cc3)NC(=O)CSC[C@@H](C(=O)N[C@@H](CCN)C(N)=O)NC(=O)[C@H](CCC(=O)O)NC(=O)[C@H](C(C)C)NC(=O)[C@H](CC3CCCCC3)NC(=O)[C@H](CCN)NC(=O)[C@@H](CC(C)C)NC(=O)[C@H](CCCN)NC2=O)cc1 [Compound 1844] ({CH2CO}-Y(Carboxymethyl)[Phe(4-COOH)]D[Phe(3-Me)][Phe(4-COOH)][Bip]Y(Propargyl)[Orn][dL][Dab][Cha]VEC[Dab]-NH2; thioether N-14)	13.2
C#CC[C@H](NC(=O)[C@H](CCN)NC(=O)[C@@H]1CSCC(=O)N[C@@H](CN)C(=O)N[C@@H](Cc2ccc(C(=O)O)cc2)C(=O)N[C@@H](CC(=O)O)C(=O)N[C@@H](Cc2cccc(C)c2)C(=O)N[C@@H](Cc2ccc(C(=O)O)cc2)C(=O)N[C@@H](Cc2ccc(-c3ccccc3)cc2)C(=O)N[C@@H](Cc2ccc(C(=O)O)cc2)C(=O)N[C@@H](CCCN)C(=O)N[C@H](CC(C)C)C(=O)N[C@@H](CCN)C(=O)N[C@@H](CC2CCCCC2)C(=O)N[C@@H](C(C)(C)O)C(=O)N[C@@H](CO)C(=O)N1)C(N)=O [Compound 1845] ({CH2CO}-[Dap][Phe(4-COOH)]D[Phe(3-Me)][Phe(4-COOH)][Bip][Phe(4-COOH)][Orn][dL][Dab][Cha][Val(3-OH)]SC[Dab][Pra]-NH2; thioether N-14)	7.3

Now from value to molecule:

IC50 [nM]	SMILES
8.3	C#CC[C@H](NC(=O)[C@H](CCN)NC(=O)[C@@H]1CSCC(=O)N[C@@H](CCCN)C(=O)N[C@@H](Cc2ccc(C(=O)O)cc2)C(=O)N[C@@H](CC(=O)O)C(=O)N[C@@H](Cc2cccc(C)c2)C(=O)N[C@@H](Cc2ccc(C(=O)O)cc2)C(=O)N[C@@H](Cc2ccc(-c3ccccc3)cc2)C(=O)N[C@@H](Cc2ccc(C(=O)O)cc2)C(=O)N[C@@H](CCCN)C(=O)N[C@H](CC(C)C)C(=O)N[C@@H](CCN)C(=O)N[C@@H](CC2CCCCC2)C(=O)N[C@@H](C(C)(C)O)C(=O)N[C@@H](CO)C(=O)N1)C(N)=O [Compound 1846] ({CH2CO}-[Orn][Phe(4-COOH)]D[Phe(3-Me)][Phe(4-COOH)][Bip][Phe(4-COOH)][Orn][dL][Dab][Cha][Val(3-OH)]SC[Dab][Pra]-NH2; thioether N-14)
2.1	C#CC[C@H](NC(=O)[C@H](CCN)NC(=O)[C@@H]1CSCC(=O)N[C@@H](CN2CCOCC2)C(=O)N[C@@H](Cc2ccc(C(=O)O)cc2)C(=O)N[C@@H](CC(=O)O)C(=O)N[C@@H](Cc2cccc(C)c2)C(=O)N[C@@H](Cc2ccc(C(=O)O)cc2)C(=O)N[C@@H](Cc2ccc(-c3ccccc3)cc2)C(=O)N[C@@H](Cc2ccc(C(=O)O)cc2)C(=O)N[C@@H](CCCN)C(=O)N[C@H](CC(C)C)C(=O)N[C@@H](CCN)C(=O)N[C@@H](CC2CCCCC2)C(=O)N[C@@H](C(C)(C)O)C(=O)N[C@@H](CO)C(=O)N1)C(N)=O [Compound 1847] ({CH2CO}-[Ala(morpholin-4-yl)][Phe(4-COOH)]D[Phe(3-Me)][Phe(4-COOH)][Bip][Phe(4-COOH)][Orn][dL][Dab][Cha][Val(3-OH)]SC[Dab][Pra]-NH2; thioether N-14)
8.3	C#CC[C@H](NC(=O)[C@H](CCN)NC(=O)[C@@H]1CSCC(=O)N[C@@H](CN)C(=O)N[C@@H](Cc2ccc(C(=O)O)cc2)C(=O)N[C@@H](CC(=O)O)C(=O)N[C@@H](Cc2cccc(C)c2)C(=O)N[C@@H](Cc2ccc(C(=O)O)cc2)C(=O)N[C@@H](Cc2ccc(-c3ccccc3)cc2)C(=O)N[C@@H](Cc2ccc(C(=O)O)cc2)C(=O)N[C@@H](CCCN)C(=O)N[C@H](CC(C)C)C(=O)N[C@@H](CCN)C(=O)N[C@@H](CC2CCCCC2)C(=O)N[C@@H](C(C)(C)O)C(=O)N[C@@H](Cc2cnc[nH]2)C(=O)N1)C(N)=O [Compound 1848] ({CH2CO}-[Dap][Phe(4-COOH)]D[Phe(3-Me)][Phe(4-COOH)][Bip][Phe(4-COOH)][Orn][dL][Dab][Cha][Val(3-OH)]HC[Dab][Pra]-NH2; thioether N-14)
7.8	C#CC[C@H](NC(=O)[C@H](CCN)NC(=O)[C@@H]1CSCC(=O)N[C@@H](CCN)C(=O)N[C@@H](Cc2ccc(C(=O)O)cc2)C(=O)N[C@@H](CC(=O)O)C(=O)N[C@@H](Cc2cccc(C)c2)C(=O)N[C@@H](Cc2ccc(C(=O)O)cc2)C(=O)N[C@@H](Cc2ccc(-c3ccccc3)cc2)C(=O)N[C@@H](Cc2ccc(C(=O)O)cc2)C(=O)N[C@@H](CCCN)C(=O)N[C@H](CC(C)C)C(=O)N[C@@H](CCN)C(=O)N[C@@H](CC2CCCCC2)C(=O)N[C@@H](C(C)(C)O)C(=O)N[C@@H](Cc2cnc[nH]2)C(=O)N1)C(N)=O [Compound 1849] ({CH2CO}-[Dab][Phe(4-COOH)]D[Phe(3-Me)][Phe(4-COOH)][Bip][Phe(4-COOH)][Orn][dL][Dab][Cha][Val(3-OH)]HC[Dab][Pra]-NH2; thioether N-14)
5.2	C#CC[C@H](NC(=O)[C@H](CCN)NC(=O)[C@@H]1CSCC(=O)N[C@@H](CCN)C(=O)N[C@@H](Cc2ccc(C(=O)O)cc2)C(=O)N[C@@H](CC(=O)O)C(=O)N[C@@H](Cc2cccc(C)c2)C(=O)N[C@@H](Cc2ccc(C(=O)O)cc2)C(=O)N[C@@H](Cc2ccc(-c3ccccc3)cc2)C(=O)N[C@@H](Cc2ccc(C(=O)O)cc2)C(=O)N[C@@H](CCCN)C(=O)N[C@H](CC(C)C)C(=O)N[C@@H](CCN)C(=O)N[C@@H](CC2CCCCC2)C(=O)N[C@@H](C(C)(C)O)C(=O)N[C@@H](CCCN)C(=O)N1)C(N)=O [Compound 1850] ({CH2CO}-[Dab][Phe(4-COOH)]D[Phe(3-Me)][Phe(4-COOH)][Bip][Phe(4-COOH)][Orn][dL][Dab][Cha][Val(3-OH)][Orn]C[Dab][Pra]-NH2; thioether N-14)
